Assays:
Type in all cases: biochemical
Conditions in all cases: role: inhibitor; substrate FRET peptide
[1] = target: MMP9 (Homo sapiens, UniProt P14780); assay: FRET peptide cleavage assay, MMP9 activity and its inhibition
Source text: (§1) A possible application of the peptides is the analysis of protease activity and the effect of substances on it. This can be utilized for understanding the role of proteases in physiological and pathological processes as well as for targeting proteases for disease diagnosis or treatment. […] 7-Methoxycoumain-4-acetic acid (Mca) is a is a fluorescent dye with an excitation peak at 322 nm and an emission peak at 381 nm. The absorbance spectrum of 2,4-dinitrophenyl (Dnp) overlaps with the emission spectrum of Mca, therefore it acts as a quencher. As long as both are in close proximity (up to about 5-10 nm), excitation of Mca leads to energy transfer to Dnp. Separation of the fluorophore-quencher pair by hydrolysis of the protease-specific cleavage site between both compounds liberates the fluorescence signal and the rise in its intensity can easily be monitored overtime. This method is sensitive and time efficient. It allows quantitative assessment of enzymatic activity and the developed fluorogenic substrates are suitable for high throughput screening, for example of protease inhibitors.

[2] = target: MMP13 (Homo sapiens, UniProt P45452); assay: FRET peptide cleavage assay, MMP13 activity and its inhibition
Source text: as §1, with “overtime.” for “overtime. This method is sensitive and time efficient. It allows quantitative assessment of enzymatic activity and the developed fluorogenic substrates are suitable for high throughput screening, for example of protease inhibitors.”

[3] = target: MMP8 (Homo sapiens, UniProt P22894); assay: FRET peptide cleavage assay, MMP8 activity and its inhibition
Chain of MMP8 (P22894 101-467): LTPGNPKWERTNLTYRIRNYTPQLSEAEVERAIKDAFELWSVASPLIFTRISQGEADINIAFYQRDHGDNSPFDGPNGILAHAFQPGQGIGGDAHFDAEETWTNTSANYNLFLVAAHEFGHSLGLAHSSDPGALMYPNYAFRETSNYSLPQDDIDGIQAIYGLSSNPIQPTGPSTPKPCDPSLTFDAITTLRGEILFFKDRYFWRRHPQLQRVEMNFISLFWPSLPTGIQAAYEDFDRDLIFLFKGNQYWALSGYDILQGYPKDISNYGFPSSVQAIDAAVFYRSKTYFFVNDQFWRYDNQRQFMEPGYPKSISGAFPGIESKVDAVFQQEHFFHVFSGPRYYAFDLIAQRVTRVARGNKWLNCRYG
Source text: as §1

Chain of MMP9 (P14780 94-707): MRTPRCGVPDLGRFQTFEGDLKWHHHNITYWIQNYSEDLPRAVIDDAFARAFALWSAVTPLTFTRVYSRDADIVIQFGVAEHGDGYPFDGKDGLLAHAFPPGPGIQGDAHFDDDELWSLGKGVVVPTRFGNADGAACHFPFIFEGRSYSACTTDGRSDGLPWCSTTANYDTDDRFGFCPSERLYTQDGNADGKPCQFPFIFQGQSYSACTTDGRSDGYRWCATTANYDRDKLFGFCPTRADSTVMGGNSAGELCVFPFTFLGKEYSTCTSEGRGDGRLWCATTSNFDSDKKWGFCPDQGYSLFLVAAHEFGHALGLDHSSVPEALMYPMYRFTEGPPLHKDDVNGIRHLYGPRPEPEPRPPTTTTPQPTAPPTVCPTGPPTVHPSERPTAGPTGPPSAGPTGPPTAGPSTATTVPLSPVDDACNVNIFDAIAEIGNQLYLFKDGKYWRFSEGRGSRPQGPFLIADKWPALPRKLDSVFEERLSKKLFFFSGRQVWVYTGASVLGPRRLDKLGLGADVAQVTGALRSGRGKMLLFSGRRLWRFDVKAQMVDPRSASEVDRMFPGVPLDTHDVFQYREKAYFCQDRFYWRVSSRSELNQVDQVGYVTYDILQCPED

loss of MMP9 activity [1]	loss of MMP13 activity [2]	loss of MMP8 activity [3]	Compound
complete loss	complete loss	complete loss	O=C(O)CN(CCN(CC(=O)O)CC(=O)O)CC(=O)O [EDTA]
complete loss		complete loss	CNC(=O)[C@@H](NC(=O)[C@H](CC(C)C)[C@H](O)C(=O)NO)C(C)(C)C [Marimastat]
complete loss	complete loss	complete loss	CCCCCCCCCCCCOS(=O)(=O)[O-].[Na+] [SDS]
